Data as given in patent US6919190B2, “Regulation of carbon assimilation” (priority 1999, dated 2005).

Key:
[1] = tested on: PEP carboxylase of Corynebacterium glutamicum strain BF100 (lysine-producing); assay: PEP carboxylase activity in crude extract, lysine-producing strain; assay type: biochemical; settings: relative to Complete = 100%, change in absorbance at 340 nm/min
Procedure: (§1) It is possible for the measurement of the enzyme activity to use a spectrometric method (Yoshinage, T., et al., J. Biochem. 68:747-750 (1970)) and the like. For example, when the enzyme assay is measured in a continuous or kinetic mode while the reaction is occurring, the reaction can be measured spectrophotometrically by following the decrease in the absorbance (usually at 340 nanometers).
(§2) Activity units were measured spectrophotometrically as the change in absorbance (340 nm/min) using crude extracts.

[2] = molecular target: T1, PEP carboxylase of Corynebacterium glutamicum strain ATCC 13032 (wild-type) (Corynebacterium glutamicum, UniProt P12880); assay: PEP carboxylase activity in crude extract, wild-type strain; assay type: biochemical; settings: crude extract of ATCC 13032, relative to Complete = 100%, change in absorbance at 340 nm/min
T1 construct: endogenous in cells; host or cells: Corynebacterium glutamicum ATCC 13032, crude extract
Procedure: as §1, §2

[3] = molecular target: T2, PEP carboxylase from a strain of Medicago sativa (Medicago sativa, UniProt Q02735); settings: Vance et al., Plant Physiol. 75:261-264 (1984); cited from earlier work
T2 sequence (Q02735 1-966): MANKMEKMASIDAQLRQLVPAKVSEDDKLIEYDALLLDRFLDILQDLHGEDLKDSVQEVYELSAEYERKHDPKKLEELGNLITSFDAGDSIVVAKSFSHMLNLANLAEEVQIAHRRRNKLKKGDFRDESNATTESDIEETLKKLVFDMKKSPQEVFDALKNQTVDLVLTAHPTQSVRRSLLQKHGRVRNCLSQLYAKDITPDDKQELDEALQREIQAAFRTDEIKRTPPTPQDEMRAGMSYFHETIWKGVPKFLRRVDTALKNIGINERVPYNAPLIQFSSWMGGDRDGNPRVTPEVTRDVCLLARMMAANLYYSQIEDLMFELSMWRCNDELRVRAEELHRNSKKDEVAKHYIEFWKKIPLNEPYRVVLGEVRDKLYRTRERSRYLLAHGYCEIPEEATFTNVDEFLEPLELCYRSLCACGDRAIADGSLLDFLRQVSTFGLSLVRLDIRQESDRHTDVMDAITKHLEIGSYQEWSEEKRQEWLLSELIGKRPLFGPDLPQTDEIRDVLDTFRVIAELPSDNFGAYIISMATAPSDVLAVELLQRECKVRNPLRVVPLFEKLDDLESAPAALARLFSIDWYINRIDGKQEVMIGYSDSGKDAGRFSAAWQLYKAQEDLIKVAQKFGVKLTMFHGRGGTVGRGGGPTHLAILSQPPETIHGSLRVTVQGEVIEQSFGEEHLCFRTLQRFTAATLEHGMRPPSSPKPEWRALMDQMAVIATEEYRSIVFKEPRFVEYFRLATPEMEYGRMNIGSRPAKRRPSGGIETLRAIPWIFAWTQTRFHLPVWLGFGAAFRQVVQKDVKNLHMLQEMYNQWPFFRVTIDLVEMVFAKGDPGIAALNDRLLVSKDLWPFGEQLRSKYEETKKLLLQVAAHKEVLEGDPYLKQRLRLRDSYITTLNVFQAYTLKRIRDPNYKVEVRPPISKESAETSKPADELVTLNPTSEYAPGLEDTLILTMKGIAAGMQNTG

T1 sequence (P12880 whole entry): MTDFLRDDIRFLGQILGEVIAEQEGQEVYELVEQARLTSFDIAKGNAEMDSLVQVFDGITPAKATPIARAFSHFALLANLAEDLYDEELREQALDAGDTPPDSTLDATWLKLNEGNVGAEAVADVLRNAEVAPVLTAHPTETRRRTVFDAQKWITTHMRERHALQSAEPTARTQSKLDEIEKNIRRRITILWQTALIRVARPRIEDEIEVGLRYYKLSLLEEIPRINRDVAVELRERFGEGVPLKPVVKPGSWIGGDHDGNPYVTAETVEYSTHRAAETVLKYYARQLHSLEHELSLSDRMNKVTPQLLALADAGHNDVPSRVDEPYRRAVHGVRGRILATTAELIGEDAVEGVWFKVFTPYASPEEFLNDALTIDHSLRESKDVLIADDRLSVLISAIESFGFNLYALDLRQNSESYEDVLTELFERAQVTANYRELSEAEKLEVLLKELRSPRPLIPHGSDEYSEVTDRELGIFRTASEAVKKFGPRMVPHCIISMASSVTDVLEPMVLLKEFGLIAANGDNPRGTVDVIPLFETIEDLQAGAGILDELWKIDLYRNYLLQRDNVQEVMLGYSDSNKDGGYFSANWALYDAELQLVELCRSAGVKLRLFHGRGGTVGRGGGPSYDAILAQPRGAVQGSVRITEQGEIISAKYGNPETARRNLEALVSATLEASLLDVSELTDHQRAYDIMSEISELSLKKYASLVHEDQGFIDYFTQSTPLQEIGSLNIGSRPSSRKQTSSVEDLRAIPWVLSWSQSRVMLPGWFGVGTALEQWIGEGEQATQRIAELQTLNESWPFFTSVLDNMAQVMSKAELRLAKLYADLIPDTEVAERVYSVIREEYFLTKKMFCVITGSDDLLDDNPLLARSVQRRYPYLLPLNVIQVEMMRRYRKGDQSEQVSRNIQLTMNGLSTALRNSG

Structure (SMILES): CC(=O)SCCNC(=O)CCNC(=O)[C@H](O)C(C)(C)COP(=O)(O)OP(=O)(O)OC[C@H]1O[C@@H](n2cnc3c(N)ncnc32)[C@H](O)[C@@H]1OP(=O)(O)O [Acetyl CoA, acetyl coenzyme A]
- PEP Carboxylase Activity −Acetyl CoA ([1]; acetyl CoA omitted): 15%
- PEP Carboxylase Activity −Acetyl CoA ([2]; acetyl CoA omitted): 56%

Structure (SMILES): N[C@@H](CC(=O)O)C(=O)O [Aspartate, L-aspartic acid]
- PEP Carboxylase Activity +Aspartate (5 mM) ([1]; 5 mM aspartate): 17%
- PEP Carboxylase Activity +Aspartate (5 mM) ([2]; 5 mM aspartate): 100%
- inhibition of PEP carboxylase activity [3]: not substantially inhibited
